Test results taken from patent US20260306527A1, “PRMT INHIBITOR COMPOUNDS AND THE USES THEREOF” (Purdue Research Foundation, priority 2023, published 2026).
“Also recorded” adds a separate entry of the source.

Tests used:
[1] = tested on: SAHH; assay: selectivity, SAHH; format: biochemical; settings: 100 μM
Procedure: The effect of the inhibitors on the coupled enzyme, SAHH, was also evaluated. The assay was performed in a final well volume of 100 μL: 25 mM Tris (pH=7.5), 50 mM KCl, 0.01% Triton X-100, 0.1 μM SAHH, and 15 μM ThioGlo1. After incubation for 10 min with the compound, 0.5 μM SAH was added to initiate the reactions.
All experiments were performed in duplicate. Fluorescence was monitored on a BMG CLARIOstar microplate reader with excitation at 380 nm and emission at 505 nm.
To examine the selectivity, the inhibition of YD1290 on four inhouse methyltransferases, including protein N-terminal methyltransferase 1 (NTMT1), nicotinamide N-methyltransferase (NNMT), and two protein lysine methyltransferases PKMT (G9a and SETD7) were tested.

[2] = biological target: T1, PRMT8 (Homo sapiens, UniProt Q9NR22); assay: selectivity of YD1113/YD1290 on PRMT panel, PRMT8; format: biochemical; settings: vs YD1113
Procedure: (§1) The selectivity of compounds YD1113 and YD1290 on PRMTs were performed by Reaction Biology Corp.
(§2) Next, the selectivity of YD1113 was investigated on a panel of PRMTs at 10 μM.
(§3) After validating the benzyl urea moiety as an unconventional homocysteine mimic of SAH for PRMTs, it was hypothesized that incorporating the benzyl urea moiety into the original pan PRMT inhibitor II757 would build a potent bisubstrate inhibitor. […] To enable a stable tri-substitution, the sulfur atom with a nitrogen atom was replaced. YD1290 was synthesized following the reported methods 9, 15 and tested in a radioactivity assay for PRMTs (FIG. 6b).

[3] = biological target: T2, SETD7 (Homo sapiens, UniProt Q8WTS6); assay: selectivity, SAHH-coupled assay SETD7; format: biochemical; settings: 100 μM
T2 construct: H3-21 peptide as substrate
Procedure: (§4) A fluorescence-based SAHH-coupled assay was applied to study the effect of the compound on methyltransferase activity of NTMT1, SETD7, G9a, NNMT, tbPRMT7 and SAHH. For NTMT1, the assay was performed in a final well volume of 100 μL: 25 mM Tris (pH=7.5), 50 mM KCl, 0.01% Triton X-100, 5 μM.
(§5) SAHH, 0.1 μM NTMT1, 3 μM AdoMet, and 10 μM ThioGlo4. After incubation for 10 min with the inhibitor, reactions were initiated by the addition of 0.5 μM GPKRIA peptide, and the reaction was monitored for 15 min. For SETD7, the assay was performed in a final well volume of 100 μL: 25 mM potassium phosphate buffer (pH=7.6), 0.01% Triton X-100, 5 μM SAHH, 1 μM SETD7, 2 μM AdoMet, and 10 μM ThioGlo1. After incubation for 10 min with the inhibitor, reactions were initiated by the addition of 90 μM H3-21 peptide, and the reaction was monitored for 15 min. […] After incubation for 10 min with the inhibitor, reactions were initiated by the addition of 10 μM nicotinamide, and the reaction was monitored for 18 min. […] After incubation for 10 min with the inhibitor, reactions were initiated by the addition of 60 μM H4-21 peptide, and the reaction was monitored for 15 min. […]
(§6) All experiments were performed in duplicate. Fluorescence was monitored on a BMG CLARIOstar microplate reader with excitation at 380 nm and emission at 505 nm. […]

[4] = tested on: type I PRMTs; assay: inhibition of type I PRMTs (summary); format: biochemical
Procedure: as §1

[5] = biological target: G9a (Homo sapiens, UniProt Q96KQ7); assay: selectivity, SAHH-coupled assay G9a; format: biochemical; settings: 100 μM
Procedure: as §4, §5, §6

[6] = biological target: T3, PRMT1 (Homo sapiens, UniProt Q99873); assay: selectivity of YD1113/YD1290 on PRMT panel, PRMT1; format: biochemical; settings: vs YD1113
T3 construct: made in house
Procedure: as §1, §2, §3

[7] = biological target: T4, NTMT1 (Homo sapiens, UniProt Q9BV86); assay: selectivity, SAHH-coupled assay NTMT1; format: biochemical; settings: 100 μM
T4 construct: GPKRIA peptide as substrate
Procedure: as §4, §5, §6

[8] = tested on: PRMTs; assay: radioactivity assay, all tested PRMTs; format: biochemical
Procedure: as §1, §3

[9] = biological target: T5, PRMT6 (Homo sapiens, UniProt Q96LA8); assay: selectivity of YD1113/YD1290 on PRMT panel, PRMT6; format: biochemical; settings: vs YD1113
Procedure: as §1, §2, §3

[10] = biological target: T6, PRMT4 (Homo sapiens, UniProt Q86X55); assay: selectivity of YD1113/YD1290 on PRMT panel, PRMT4; format: biochemical
T6 sequence (Q86X55 1-608): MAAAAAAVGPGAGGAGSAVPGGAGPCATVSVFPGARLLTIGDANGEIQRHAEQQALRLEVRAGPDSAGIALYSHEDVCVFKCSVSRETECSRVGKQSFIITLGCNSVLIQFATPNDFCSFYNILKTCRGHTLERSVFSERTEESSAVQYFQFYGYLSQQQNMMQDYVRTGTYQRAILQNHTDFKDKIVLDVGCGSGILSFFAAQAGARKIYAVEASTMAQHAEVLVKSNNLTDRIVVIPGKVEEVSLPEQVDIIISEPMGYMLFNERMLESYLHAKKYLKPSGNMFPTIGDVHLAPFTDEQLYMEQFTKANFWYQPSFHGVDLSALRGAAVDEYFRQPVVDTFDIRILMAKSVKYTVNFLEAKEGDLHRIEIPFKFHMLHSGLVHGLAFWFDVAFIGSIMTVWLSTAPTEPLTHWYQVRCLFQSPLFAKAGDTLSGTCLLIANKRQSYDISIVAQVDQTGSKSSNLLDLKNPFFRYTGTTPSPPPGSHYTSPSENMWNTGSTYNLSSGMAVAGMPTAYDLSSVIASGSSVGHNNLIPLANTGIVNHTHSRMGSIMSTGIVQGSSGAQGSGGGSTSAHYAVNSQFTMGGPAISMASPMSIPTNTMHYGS
Procedure: as §1, §2, §3

[11] = biological target: T7, PRMT3 (Homo sapiens, UniProt O60678); assay: selectivity of YD1113/YD1290 on PRMT panel, PRMT3; format: biochemical; settings: vs YD1113
Procedure: as §1, §2, §3
Target sequence in this assay (O60678 whole entry, species assumed): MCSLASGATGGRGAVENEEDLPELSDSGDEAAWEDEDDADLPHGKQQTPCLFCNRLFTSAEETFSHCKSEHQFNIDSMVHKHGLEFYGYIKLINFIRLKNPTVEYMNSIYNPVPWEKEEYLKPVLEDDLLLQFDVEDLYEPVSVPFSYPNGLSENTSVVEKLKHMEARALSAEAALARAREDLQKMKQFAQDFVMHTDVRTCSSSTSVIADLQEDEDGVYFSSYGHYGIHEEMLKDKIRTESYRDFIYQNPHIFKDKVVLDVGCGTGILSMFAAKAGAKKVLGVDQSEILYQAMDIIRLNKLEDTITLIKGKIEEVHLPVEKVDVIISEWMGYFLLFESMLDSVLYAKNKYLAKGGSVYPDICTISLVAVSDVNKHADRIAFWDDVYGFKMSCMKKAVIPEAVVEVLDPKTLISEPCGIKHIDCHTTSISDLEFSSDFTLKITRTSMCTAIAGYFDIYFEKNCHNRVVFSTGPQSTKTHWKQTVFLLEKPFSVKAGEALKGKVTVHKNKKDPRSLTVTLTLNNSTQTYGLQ

[12] = biological target: T3, PRMT1; assay: inhibition mechanism study on PRMT1, SAHH-coupled fluorescence; format: biochemical; settings: role: inhibitor
Procedure: The inhibition mechanism of YD1290 was study on PRMT1 with the fluorescence-based SAHH-coupled assay. Varying concentrations of SAM (from 5 to 40 μM) with 4 μM fixed concentration of H4-21 or varying concentration of H4-21 (from 4 to 32 μM) with 5 μM fixed concentration of SAM were included in reactions at concentration of YD1290 ranging from 0.15 nM to 10 μM.
All the IC50 values were determined in triplicate. Fluorescence was monitored on a BMG CLARIOstar microplate reader with excitation 380 nm and emission 505 nm. Data were processed by using GraphPad Prism software 8.0.
To confirm the potent inhibition activities of YD1290 on type I PRMTs resulting from bisubstrate characteristics, its inhibition mechanism on PRMT1 was determined through the SAHH-coupled fluorescence-based assay.

[13] = biological target: T8, NNMT (Homo sapiens, UniProt P40261); assay: selectivity, SAHH-coupled assay NNMT; format: biochemical; settings: 100 μM
T8 construct: nicotinamide as substrate
Procedure: as §4, §5, §6

[14] = biological target: T5, PRMT6; assay: radioactive assay (Reaction Biology Corp.), inhibition of PRMT6; format: biochemical
Procedure: (§7) Next, the inhibition activity of the library was investigated for five PRMT members from type I PRMTs.
(§8) The PRMT 4, 6 and 8 methylation assays were performed by Reaction Biology corp.

[15] = biological target: T6, PRMT4; assay: radioactive assay (Reaction Biology Corp.), inhibition of PRMT4; format: biochemical
Procedure: as §7, §8

[16] = tested on: PRMT4/7; settings: previously reported; cited from earlier work
[17] = biological target: T7, PRMT3; assay: SAHH-coupled fluorescence assay, inhibition of PRMT3; format: biochemical; design: PRMT3 (residues 211-531) was cloned into the pET28a-MHL expression vector; tag of the pET28a-MHL vector (not described); made in house; host or cells: Escherichia coli BL21(DE3)
Outline: (§9)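 Coupled SAHH/ThioGlo4 fluorescence read-out (ex 380 nm, em 505 nm) of PRMT3 (0.25 μM) methylation with 30 μM AdoMet and 5 μM SAHH. Buffer was 20 mM Tris pH 7.5 with 0.01% Triton X-100. Run in duplicate.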
Target sequence in this assay (O60678 211-531): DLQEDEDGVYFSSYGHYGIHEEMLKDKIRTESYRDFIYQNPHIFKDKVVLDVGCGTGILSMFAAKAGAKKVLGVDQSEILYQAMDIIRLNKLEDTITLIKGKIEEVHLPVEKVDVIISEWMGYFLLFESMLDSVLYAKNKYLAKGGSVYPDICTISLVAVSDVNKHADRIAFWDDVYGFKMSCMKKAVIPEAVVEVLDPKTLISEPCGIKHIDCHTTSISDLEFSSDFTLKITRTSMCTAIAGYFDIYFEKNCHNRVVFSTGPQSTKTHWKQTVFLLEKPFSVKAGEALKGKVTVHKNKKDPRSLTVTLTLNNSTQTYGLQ

[18] = biological target: T1, PRMT8; assay: radioactive assay (Reaction Biology Corp.), inhibition of PRMT8; format: biochemical
Procedure: as §7, §8

[19] = biological target: T3, PRMT1; assay: SAHH-coupled fluorescence assay, inhibition of PRMT1; format: biochemical
Outline: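 PRMT1 (0.1 μM) was run with 10 μM AdoMet, 5 μM SAHH and 10 μM ThioGlo4 in 2.5 mM HEPES pH 7.0, 25 mM NaCl, 25 μM EDTA, 50 μM TCEP and 0.01% Triton X-100. Fluorescence (ex 400/em 465 nm) was monitored for 15 min. Assays were done in duplicate.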

[20] = tested on: PRMT7; assay: selectivity of YD1113 on PRMT panel, PRMT7; format: biochemical
Procedure: as §1, §2

[21] = tested on: PRMT4; assay: selectivity of YD1113/YD1290 on PRMT panel, PRMT4; format: biochemical
Procedure: as §1, §2, §3

[22] = tested on: PRMT3; assay: SAHH-coupled fluorescence assay, inhibition of PRMT3; format: biochemical; settings: read-out: IC50[μM] | PRMT3
Outline: as §9

[23] = tested on: PRMT3; assay: selectivity of YD1113/YD1290 on PRMT panel, PRMT3; format: biochemical
Procedure: as §1, §2, §3

[24] = tested on: PRMTs; settings: cited from earlier work
[25] = tested on: PRMT4/5; assay: inhibition of PRMT4/5 (figure legend); format: biochemical

T1 sequence (Q9NR22 whole entry, species assumed): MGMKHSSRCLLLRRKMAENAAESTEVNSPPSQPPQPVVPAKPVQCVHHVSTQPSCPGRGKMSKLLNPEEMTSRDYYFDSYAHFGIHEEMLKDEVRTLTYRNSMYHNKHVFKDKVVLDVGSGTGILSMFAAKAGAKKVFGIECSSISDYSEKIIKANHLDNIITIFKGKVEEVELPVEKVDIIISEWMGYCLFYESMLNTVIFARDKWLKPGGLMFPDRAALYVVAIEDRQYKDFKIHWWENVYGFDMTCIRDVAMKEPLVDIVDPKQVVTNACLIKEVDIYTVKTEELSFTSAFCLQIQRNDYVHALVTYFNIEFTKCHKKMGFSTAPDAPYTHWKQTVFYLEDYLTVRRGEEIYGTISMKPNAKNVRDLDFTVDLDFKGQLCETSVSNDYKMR
T3 sequence (Q99873 whole entry, species assumed): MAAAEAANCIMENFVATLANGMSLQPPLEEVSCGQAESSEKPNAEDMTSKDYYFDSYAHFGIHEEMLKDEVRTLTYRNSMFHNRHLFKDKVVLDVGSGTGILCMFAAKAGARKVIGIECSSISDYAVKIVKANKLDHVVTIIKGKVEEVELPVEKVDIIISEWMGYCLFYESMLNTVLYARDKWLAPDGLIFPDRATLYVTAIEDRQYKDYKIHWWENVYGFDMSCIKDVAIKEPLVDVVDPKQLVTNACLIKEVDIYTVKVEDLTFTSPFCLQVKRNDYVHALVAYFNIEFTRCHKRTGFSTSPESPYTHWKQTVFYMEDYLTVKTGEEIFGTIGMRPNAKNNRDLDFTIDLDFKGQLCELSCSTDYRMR
T5 sequence (Q96LA8 whole entry, species assumed): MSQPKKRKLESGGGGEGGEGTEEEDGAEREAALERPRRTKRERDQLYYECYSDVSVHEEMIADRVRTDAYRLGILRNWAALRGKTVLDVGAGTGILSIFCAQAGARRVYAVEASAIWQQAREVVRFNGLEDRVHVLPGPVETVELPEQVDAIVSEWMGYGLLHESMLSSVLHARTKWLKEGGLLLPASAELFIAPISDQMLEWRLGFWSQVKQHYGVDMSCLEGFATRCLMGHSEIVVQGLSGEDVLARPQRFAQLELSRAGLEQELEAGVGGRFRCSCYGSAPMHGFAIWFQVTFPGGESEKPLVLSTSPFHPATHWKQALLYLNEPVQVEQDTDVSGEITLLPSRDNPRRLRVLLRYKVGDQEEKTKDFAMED
T8 sequence (P40261 whole entry): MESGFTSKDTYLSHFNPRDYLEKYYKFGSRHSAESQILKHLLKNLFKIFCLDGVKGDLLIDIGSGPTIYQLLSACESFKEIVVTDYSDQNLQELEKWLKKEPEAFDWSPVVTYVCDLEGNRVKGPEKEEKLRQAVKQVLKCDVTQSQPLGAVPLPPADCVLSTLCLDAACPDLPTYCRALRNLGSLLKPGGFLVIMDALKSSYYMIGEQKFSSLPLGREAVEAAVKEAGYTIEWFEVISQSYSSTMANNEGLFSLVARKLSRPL
T4 sequence (Q9BV86 whole entry): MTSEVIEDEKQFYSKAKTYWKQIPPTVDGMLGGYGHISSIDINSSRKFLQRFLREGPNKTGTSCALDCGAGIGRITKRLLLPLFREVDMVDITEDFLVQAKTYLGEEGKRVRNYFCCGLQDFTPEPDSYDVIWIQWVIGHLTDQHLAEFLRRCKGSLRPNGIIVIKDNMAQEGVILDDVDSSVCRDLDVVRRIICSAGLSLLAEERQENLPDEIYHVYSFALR
Sequence of G9a (Q96KQ7 whole entry): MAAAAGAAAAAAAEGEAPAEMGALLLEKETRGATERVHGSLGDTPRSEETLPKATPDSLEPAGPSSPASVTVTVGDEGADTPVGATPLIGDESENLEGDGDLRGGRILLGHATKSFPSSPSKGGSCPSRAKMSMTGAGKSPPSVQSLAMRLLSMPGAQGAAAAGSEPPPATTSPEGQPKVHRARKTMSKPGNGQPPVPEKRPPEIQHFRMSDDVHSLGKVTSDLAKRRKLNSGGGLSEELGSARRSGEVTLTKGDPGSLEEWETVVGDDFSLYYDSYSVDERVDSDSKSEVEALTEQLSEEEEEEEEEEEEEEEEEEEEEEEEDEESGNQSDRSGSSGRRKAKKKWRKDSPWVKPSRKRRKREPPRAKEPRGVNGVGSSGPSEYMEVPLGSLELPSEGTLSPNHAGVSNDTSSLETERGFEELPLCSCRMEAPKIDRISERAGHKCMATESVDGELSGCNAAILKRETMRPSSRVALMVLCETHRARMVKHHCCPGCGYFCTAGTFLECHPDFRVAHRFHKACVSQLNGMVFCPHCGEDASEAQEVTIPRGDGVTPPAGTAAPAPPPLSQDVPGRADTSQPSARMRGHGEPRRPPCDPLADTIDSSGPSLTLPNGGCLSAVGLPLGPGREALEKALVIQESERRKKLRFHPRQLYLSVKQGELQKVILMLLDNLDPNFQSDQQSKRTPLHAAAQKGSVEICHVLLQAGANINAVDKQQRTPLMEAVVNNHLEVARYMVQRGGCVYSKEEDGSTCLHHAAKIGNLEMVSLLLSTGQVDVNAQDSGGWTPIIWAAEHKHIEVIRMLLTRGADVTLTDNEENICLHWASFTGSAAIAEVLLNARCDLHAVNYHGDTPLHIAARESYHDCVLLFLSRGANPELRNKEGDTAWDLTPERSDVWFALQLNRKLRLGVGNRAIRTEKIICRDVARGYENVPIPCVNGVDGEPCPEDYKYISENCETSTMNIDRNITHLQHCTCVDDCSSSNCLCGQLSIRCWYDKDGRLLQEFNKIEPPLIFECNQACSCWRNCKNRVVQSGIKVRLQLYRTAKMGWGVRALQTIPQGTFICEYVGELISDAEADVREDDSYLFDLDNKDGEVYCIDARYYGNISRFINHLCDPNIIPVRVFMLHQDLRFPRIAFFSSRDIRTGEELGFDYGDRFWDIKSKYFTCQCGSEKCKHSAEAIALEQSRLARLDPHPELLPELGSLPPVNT
T2 sequence (Q8WTS6 whole entry): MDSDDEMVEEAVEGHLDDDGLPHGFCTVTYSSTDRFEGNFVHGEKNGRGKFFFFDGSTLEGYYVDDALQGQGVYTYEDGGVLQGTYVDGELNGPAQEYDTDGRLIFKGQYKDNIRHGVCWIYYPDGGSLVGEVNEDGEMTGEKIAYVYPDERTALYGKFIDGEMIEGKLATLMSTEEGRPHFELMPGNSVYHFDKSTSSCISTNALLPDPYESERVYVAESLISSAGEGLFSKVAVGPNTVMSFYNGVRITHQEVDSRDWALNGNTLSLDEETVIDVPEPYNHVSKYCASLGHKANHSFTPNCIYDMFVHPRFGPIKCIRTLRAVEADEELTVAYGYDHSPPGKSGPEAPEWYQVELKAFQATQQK

Question: Which results are given for `N=C(NCCCN(CCNC(=O)NCc1ccccc1)C[C@H]1O[C@@H](n2cnc3c(N)ncnc32)[C@H](O)[C@@H]1O)Nc1cccc(Br)c1` [YD1290]?
Answer: inhibition of SAHH [1]: did not display any significant inhibition; fold potency to PRMT8 compared to YD1113 [2]: > 80 fold; inhibition of SETD7 [3]: did not display any significant inhibition; IC50 [4]: < 0.005 µM; inhibition of G9a [5]: did not display any significant inhibition; fold potency to PRMT1 compared to YD1113 [6]: > 80 fold; inhibition of NTMT1 [7]: did not display any significant inhibition; potency to all tested PRMTs [8]: demonstrated potency to all tested PRMTs; fold potency to PRMT6 compared to YD1113 [9]: > 80 fold; PRMT4 activity ([10]; 1.5 nM, radioactivity assay): completely abolished PRMT4 activity; fold potency to PRMT4 compared to YD1113 ([10]; vs YD1113): > 80 fold; fold potency to PRMT3 compared to YD1113 [11]: > 80 fold; inhibition mechanism vs peptide substrate, PRMT1 ([12]; H4-21 4 to 32 μM, SAM 5 μM fixed): slightly increased when the ratio of peptide/Km increased; also recorded: peptide-site competitive inhibitor of PRMT1; inhibition mechanism vs SAM, PRMT1 ([12]; SAM 5 to 40 μM, H4-21 4 μM fixed): SAM-site competitive inhibitor of PRMT1; inhibition of NNMT [13]: did not display any significant inhibition

Question: Which results are given for `Nc1ncnc2c1ncn2[C@@H]1O[C@H](CSCCCNCc2cccc(-c3ccc(Cl)cc3)c2)[C@@H](O)[C@H]1O` [Compound 10m]?
Answer: inhibition at 10 µM [14]: 46%; PRMT4 inhibition [15]: more potent PRMT4 inhibition activity than SGC8158; inhibition at 10 µM [15]: 99%; PRMT4/7 inhibition [16]: potent PRMT4/7 inhibitor; inhibition at 10 µM [17]: 22%; inhibition at 10 µM [18]: 73%; inhibition at 10 µM [19]: 65%

Question: What does the source list for `N=C(NCCCSC[C@H]1O[C@@H](n2cnc3c(N)ncnc32)[C@H](O)[C@@H]1O)Nc1cccc(Br)c1` [Compound 5f]?
Answer: inhibition at 10 µM [14]: 100%; inhibition at 10 µM [15]: 100%; inhibition at 10 µM [17]: 68%; IC50 [20]: 555 nM; inhibition at 10 µM [18]: 100%; inhibition at 10 µM [19]: 94%; IC50 ([19]; read-out: IC50[μM] | PRMT1): 0.08 ± 0.016 µM; IC50 [21]: 5.05 nM; IC50 [22]: 2.2 ± 0.29 µM; IC50 [23]: 321 nM; inhibition of all PRMTs [24]: broad and potent inhibition to all PRMTs

Question: With `CC(CN(CCCN)C[C@H]1O[C@@H](n2cnc3c(N)ncnc32)[C@H](O)[C@@H]1O)NC(=O)NCc1ccccc1` (stereo partly shown) [YD1288] as the compound, how does the “PRMT4/5 inhibition” value [25] read?
Answer: Its value is “dual selective and potent PRMT4/5 inhibitor”.
